Source: patent publication US8143484B2, “Method for regulating agrobacterium-mediated transformation” (priority 2008, dated 2012)

Tests used:
[1] = tested on: lillies; conditions: addition of acetosyringone; cited from earlier work
[2] = tested on: wheat; conditions: 200 μM instead of the usual 100 μM; cited from earlier work
[3] = tested on: sorghum; conditions: acetosyringone alone used to induce vir gene expression; cited from earlier work
[4] = tested on: P898012 sorghum immature embryos; test: Phenolic compound production by infected, cultured sorghum immature embryos (visual exudates); format: cell-based; conditions: infected and cultured immature zygotic embryos of sorghum (FIG. 3)
Experimental: Transformation was carried out in 6 distinctive but sequential phases. Freshly isolated embryos of P898012 or GS3 were mixed together or separated into 1.5 mL of medium 700 either lacking or containing […] acetosyringone. The concentration of A. tumefaciens harbouring the vector PHP15303 (FIG. 5) in the suspension was adjusted to 0.857×10^9 cfu/mL [Optical Density (OD) approximately 0.6 at 550 nm]. The infection suspension was vortexed gently for 15 seconds, poured into 1 cm-diameter microplates and vacuumed for 5 minutes with gentle rocking for mixing. • 2. The Agrobacterium suspension was then aspirated and the embryos plated on co-cultivation medium 710B either lacking or containing […] acetosyringone for 3 days (co-cultivation) and cultured in the dark at 25° C. • 3. […]
Cultured immature zygotic embryos of the sorghum genotype P898012 produce phenolic compounds which can be visually identified as black/dark brown exudates within the proximity of the embryos on tissue culture medium (FIG. 2 (I) and FIG. 1 (J)). When these immature embryos are infected with A. tumefaciens, higher quantities of these phenolic compounds are produced, especially when the medium on which the embryos are cultured is not supplemented with the synthetic acetosyringone (contrast FIGS. 2 (A & B) vs. FIGS. 2 (D & E)).

COc1cc(C(C)=O)cc(OC)c1O [acetosyringone, 4-acetyl-2,6-dimethoxyphenol]
effect on transformation efficiency [1]: does not have any effect on transformation efficiency
T-DNA transfer and transformation efficiency [2]: higher levels of T-DNA transfer and transformation efficiency
Agrobacterium transformation efficiency [3]: very low
effect on production of phenolic compounds [4]: depresses the production of phenolic compounds
